Results from patent publication US20170022171A1, “2,5-DISUBSTITUTED CYCLOPENTANECARBOXYLIC ACIDS AND THEIR USE” (Bayer Pharma Aktiengesellschaft, priority 2014, published 2017).

How the values were obtained:
Type in all cases: biochemical
mouse MMP-8 = target: T1, mouse MMP-8 (Mus musculus, UniProt O70138); assay: In vitro mouse MMP-8 inhibition test
T1 construct: purchased R&D Systems 2904-MP
Excerpt: (§1) The MMP-mediated amidolytic cleavage of a suitable peptide substrate leads to an increase in fluorescent light here too. The signal intensity of the fluorescent light is directly proportional to the enzyme activity. The active concentration of a test compound at which half the enzyme is inhibited (50% signal intensity of the fluorescent light) is reported as the IC50 value.
(§2) Recombinant mouse MMP-8 (from R&D Systems, 2904-MP) is chemically activated in accordance with the manufacturer's instructions using APMA. 1 μl of the test compound to be analysed (as a solution in DMSO, suitable concentrations, for example, 1 nM to 30 μM) is pipetted into 24 μl of activated enzyme (final concentration, for example, 2 nM) in reaction buffer (50 mM Tris/HCl pH 7.5, 10 mM CaCl2, 150 mM NaCl, 0.05% Brij®-35) in a white 384-hole microtiter plate (MTP). The enzymatic reaction is started by adding the intramolecularly quenched Mca-Lys-Pro-Leu-Gly-Leu-Dpa(Dnp)-Ala-Arg-NH2 substrate (final concentration, for example, 5 μM; R&D Systems, ES-010), so as to result in a total test volume of 50 μl. The course of the MMP-8 reaction is measured by measuring the fluorescence intensity (excitation 320 nm, emission 410 nm) over a suitable period of time (for example over 120 min at a temperature of 32° C.).

mouse MMP-2 = target: T2, mouse MMP-2 (Mus musculus, UniProt P33434); assay: In vitro mouse MMP-2 inhibition test
T2 construct: purchased R&D Systems 924-MP
Excerpt: as §1
Recombinant mouse MMP-2 (from R&D Systems, 924-MP) is chemically activated in accordance with the manufacturer's instructions using APMA. 1 μl of the test compound to be analysed (as a solution in DMSO, suitable concentrations, for example, 1 nM to 30 μM) is pipetted into 24 μl of activated enzyme (final concentration, for example, 0.1 nM) in reaction buffer (50 mM Tris/HCl pH 7.5, 10 mM CaCl2, 150 mM NaCl, 0.05% Brij®-35) in a white 384-hole microtiter plate (MTP). The enzymatic reaction is started by adding the intramolecularly quenched Mca-Pro-Leu-Gly-Leu-Dpa(Dnp)-Ala-Arg-NH2 substrate (final concentration, for example, 10 μM; R&D Systems, ES-001), so as to result in a total test volume of 50 The course of the MMP-2 reaction is measured by measuring the fluorescence intensity (excitation 320 nm, emission 410 nm) over a suitable period of time (for example over 120 min at a temperature of 32° C.).

mouse MMP-7 = target: T3, mouse MMP-7 (Mus musculus, UniProt Q10738); assay: In vitro mouse MMP-7 inhibition test
T3 construct: purchased R&D Systems 2967-MP
T3 sequence (Q10738 95-264): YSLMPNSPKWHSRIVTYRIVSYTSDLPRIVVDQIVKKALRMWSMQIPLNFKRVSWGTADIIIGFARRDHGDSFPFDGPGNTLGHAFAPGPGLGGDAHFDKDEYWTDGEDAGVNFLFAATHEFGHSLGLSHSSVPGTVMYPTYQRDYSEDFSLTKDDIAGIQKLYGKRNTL
Excerpt: as §1
as §2, with “mouse MMP-7” for “mouse MMP-8”, “Systems, 2967-MP)” for “Systems, 2904-MP)”, “example, 0.5” for “example, 2”, “the MMP-7” for “the MMP-8”

mouse MMP-3 = target: T4, mouse MMP-3 (Mus musculus, UniProt P28862); assay: In vitro mouse MMP-3 inhibition test
T4 construct: purchased R&D Systems 548-MP
Excerpt: as §1
as §2, with “mouse MMP-3” for “mouse MMP-8”, “Systems, 548-MP)” for “Systems, 2904-MP)”, “example, 0.5” for “example, 2”, “quenched Mca-Arg-Pro-Lys-Pro-Val-Glu-Nval-Trp-Arg-Lys(Dnp)-NH2” for “quenched Mca-Lys-Pro-Leu-Gly-Leu-Dpa(Dnp)-Ala-Arg-NH2”, “Systems, ES-002),” for “Systems, ES-010),”, “the MMP-3” for “the MMP-8”

T1 sequence (O70138 101-465): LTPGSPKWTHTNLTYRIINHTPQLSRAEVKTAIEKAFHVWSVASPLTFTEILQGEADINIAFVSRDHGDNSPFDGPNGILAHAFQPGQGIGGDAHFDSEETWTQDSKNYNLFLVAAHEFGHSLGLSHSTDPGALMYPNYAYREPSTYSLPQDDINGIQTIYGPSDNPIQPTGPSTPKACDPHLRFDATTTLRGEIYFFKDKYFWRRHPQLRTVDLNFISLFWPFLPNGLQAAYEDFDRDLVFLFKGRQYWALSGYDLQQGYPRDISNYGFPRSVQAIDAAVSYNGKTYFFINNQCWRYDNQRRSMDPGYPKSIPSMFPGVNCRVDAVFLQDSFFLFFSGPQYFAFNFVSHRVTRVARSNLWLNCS
T2 sequence (P33434 110-662): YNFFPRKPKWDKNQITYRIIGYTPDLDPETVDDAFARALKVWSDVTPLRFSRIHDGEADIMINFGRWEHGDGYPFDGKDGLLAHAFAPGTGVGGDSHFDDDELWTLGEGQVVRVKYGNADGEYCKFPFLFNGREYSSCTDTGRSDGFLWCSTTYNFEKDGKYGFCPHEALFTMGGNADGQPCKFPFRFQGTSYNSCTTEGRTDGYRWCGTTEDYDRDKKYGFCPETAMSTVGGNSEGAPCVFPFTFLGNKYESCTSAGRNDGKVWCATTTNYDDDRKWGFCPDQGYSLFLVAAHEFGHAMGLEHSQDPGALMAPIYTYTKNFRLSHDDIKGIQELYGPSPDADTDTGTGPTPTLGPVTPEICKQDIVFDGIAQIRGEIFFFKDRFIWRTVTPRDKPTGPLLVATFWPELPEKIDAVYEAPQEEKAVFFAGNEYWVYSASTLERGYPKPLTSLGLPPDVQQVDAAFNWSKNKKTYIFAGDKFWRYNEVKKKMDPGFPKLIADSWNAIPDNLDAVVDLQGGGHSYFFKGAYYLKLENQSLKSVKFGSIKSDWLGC
T4 sequence (P28862 100-477): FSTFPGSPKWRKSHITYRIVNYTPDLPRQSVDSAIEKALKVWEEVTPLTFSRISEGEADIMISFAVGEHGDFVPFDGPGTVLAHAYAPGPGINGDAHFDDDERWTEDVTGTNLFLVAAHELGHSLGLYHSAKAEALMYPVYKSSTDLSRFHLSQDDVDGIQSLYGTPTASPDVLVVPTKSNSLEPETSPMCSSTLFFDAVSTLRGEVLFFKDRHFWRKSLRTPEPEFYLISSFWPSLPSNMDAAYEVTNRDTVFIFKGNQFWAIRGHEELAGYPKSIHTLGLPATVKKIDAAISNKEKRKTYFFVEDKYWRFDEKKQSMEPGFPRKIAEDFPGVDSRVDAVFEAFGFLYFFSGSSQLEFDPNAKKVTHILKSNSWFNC

Compound	IC50 (mouse MMP-8) [nM]	IC50 (mouse MMP-2) [nM]	IC50 (mouse MMP-7) [nM]	IC50 (mouse MMP-3) [nM]
Cc1ccc2nnn(C[C@@H]3CC[C@H](C(=O)c4ccc(OCc5cccc(OC(F)(F)F)c5)cc4)[C@H]3C(=O)O)c(=O)c2c1 (racemic) [Example 109, (+/−)-(1RS,2SR,5RS)-2-[(6-Methyl-4-oxo-1,2,3-benzotriazin-3(4H)-yl)methyl]-5-(4-{[3-(trifluoromethoxy)benzyl]oxy}benzoyl)cyclopentanecarboxylic acid]	450	1300	250	1100
O=C(O)[C@@H]1[C@@H](Cn2nnc3ccc(C(F)(F)F)cc3c2=O)CC[C@H]1C(=O)c1ccc(OCC2CCCCC2)cc1 (single isomer, unassigned) [Example 41, (+)-(1RS,2RS,5SR)-2-[4-(Cyclohexylmethoxy)benzoyl]-5-{[4-oxo-6-(trifluoromethyl)-1,2,3-benzotriazin-3(4H)-yl]methyl}cyclopentanecarboxylic acid]	16	180	27	790
O=C(O)[C@@H]1[C@@H](Cn2nnc3ccc(C(F)(F)F)cc3c2=O)CC[C@H]1C(=O)c1ccc(SCc2cccc(Cl)c2)cc1 (single isomer, unassigned) [Example 77, (+)-(1RS,2RS,5SR)-2-{4-[(3-Chlorobenzyl)sulphanyl]benzoyl}-5-{[4-oxo-6-(trifluoromethyl)-1,2,3-benzotriazin-3(4H)-yl]methyl}cyclopentanecarboxylic acid]	130	1400	54	1400
Cc1cccc(COc2ccc(C(=O)[C@@H]3CC[C@H](Cn4nnc5ccc(C)cc5c4=O)[C@H]3C(=O)O)cc2)c1 (single isomer, unassigned) [Example 98, (+)-(1RS,2RS,5SR)-2-{4-[(3-Methylbenzyl)oxy]benzoyl}-5-[(6-methyl-4-oxo-1,2,3-benzotriazin-3(4H)-yl)methyl]cyclopentanecarboxylic acid]	280	640	29	730
Cc1cccc(COc2ccc(C(=O)[C@H]3CC[C@@H](Cn4nnc5ccc(C)cc5c4=O)[C@@H]3C(=O)O)cc2)c1 (racemic) [Example 97, (+/−)-(1RS,2RS,5SR)-2-{4-[(3-Methylbenzyl)oxy]benzoyl}-5-[(6-methyl-4-oxo-1,2,3-benzotriazin-3(4H)-yl)methyl]cyclopentanecarboxylic acid]	1300	1900	160	4600
O=C(O)[C@@H]1[C@@H](Cn2nnc3ccc(C(F)(F)F)cc3c2=O)CC[C@H]1C(=O)c1ccc(OCCC2CCCCC2)cc1 (single isomer, unassigned) [Example 52, (+)-(1RS,2RS,5SR)-2-[4-(2-Cyclohexylethoxy)benzoyl]-5-{[4-oxo-6-(trifluoromethyl)-1,2,3-benzotriazin-3(4H)-yl]methyl}cyclopentanecarboxylic acid]	160	1800	170	6900
O=C(O)[C@H]1[C@H](Cn2nnc3ccccc3c2=O)CC[C@@H]1C(=O)c1ccc(OCCC2CCCCC2)cc1 (racemic) [Example 5, (+/−)-(1RS,2RS,5SR)-2-[4-(2-Cyclohexylethoxy)benzoyl]-5-[(4-oxo-1,2,3-benzotriazin-3(4H)-yl)methyl]cyclopentanecarboxylic acid]	360	270	160	1300
(+)-(1RS,2RS,5SR)-2-{4-[(3,4-Dichlorobenzyl)oxy]benzoyl}-5-{[4-oxo-6-(trifluoromethyl)-1,2,3-benzotriazin-3(4H)-yl]methyl}cyclopentanecarboxylic acid [Example 28]	120	1000	140	8200
